Reference: the supplement of paper PMC10307832

Assays:
Assay in all cases: relative viability (nuclei count vs DMSO), 5 days (fraction); higher = more cells survive
Carfilzomib + Crizotinib = compound: CC(C)C[C@H](NC(=O)[C@H](CCc1ccccc1)NC(=O)CN1CCOCC1)C(=O)N[C@@H](Cc1ccccc1)C(=O)N[C@@H](CC(C)C)C(=O)[C@@]1(C)CO1 [Carfilzomib] + C[C@@H](Oc1cc(-c2cnn(C3CCNCC3)c2)cnc1N)c1c(Cl)ccc(F)c1Cl [Crizotinib] (partner 1 µM)
Summary of the method: (§1)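 One day after seeding in 1536-well plates, lung cancer cell lines were dosed by pin tool. Dosing was either single-drug or a fixed anchor-drug dose plus five library-drug doses (not always all listed) in √10 steps. After 5 days, nuclei were stained in one fix-and-stain step and counted on 4× images, and relative viability is the nuclei count of treated wells over that of vehicle wells, given as the median of duplicate plates.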

Crizotinib + Luminespib = compound: C[C@@H](Oc1cc(-c2cnn(C3CCNCC3)c2)cnc1N)c1c(Cl)ccc(F)c1Cl [Crizotinib] + CCNC(=O)c1noc(-c2cc(C(C)C)c(O)cc2O)c1-c1ccc(CN2CCOCC2)cc1 [Luminespib] (partner 0.01 µM)
Summary of the method: as §1

Olaparib + Bortezomib = compound: O=C(c1cc(Cc2n[nH]c(=O)c3ccccc23)ccc1F)N1CCN(C(=O)C2CC2)CC1 [Olaparib] + CC(C)C[C@H](NC(=O)[C@H](Cc1ccccc1)NC(=O)c1cnccn1)B(O)O [Bortezomib] (partner 0.002 µM)
Summary of the method: as §1

Olaparib + Tozasertib = compound: O=C(c1cc(Cc2n[nH]c(=O)c3ccccc23)ccc1F)N1CCN(C(=O)C2CC2)CC1 [Olaparib] + Cc1cc(Nc2cc(N3CCN(C)CC3)nc(Sc3ccc(NC(=O)C4CC4)cc3)n2)n[nH]1 [Tozasertib] (partner 0.1 µM)
Summary of the method: as §1

Cell Line | relative viability (Carfilzomib + Crizotinib; first compound 0.001 µM) | relative viability (Carfilzomib + Crizotinib; first compound 0.003162 µM) | relative viability (Carfilzomib + Crizotinib; first compound 0.01 µM) | relative viability (Carfilzomib + Crizotinib; first compound 0.03162 µM) | relative viability (Carfilzomib + Crizotinib; first compound 0.1 µM) | relative viability (Crizotinib + Luminespib; first compound 0.01 µM) | relative viability (Crizotinib + Luminespib; first compound 0.03162 µM) | relative viability (Crizotinib + Luminespib; first compound 0.1 µM) | relative viability (Crizotinib + Luminespib; first compound 0.3162 µM) | relative viability (Crizotinib + Luminespib; first compound 1 µM) | relative viability (Olaparib + Bortezomib; first compound 0.08 µM) | relative viability (Olaparib + Bortezomib; first compound 0.253 µM) | relative viability (Olaparib + Bortezomib; first compound 2.53 µM) | relative viability (Olaparib + Bortezomib; first compound 8 µM) | relative viability (Olaparib + Tozasertib; first compound 0.08 µM) | relative viability (Olaparib + Tozasertib; first compound 0.253 µM) | relative viability (Olaparib + Tozasertib; first compound 2.53 µM) | relative viability (Olaparib + Tozasertib; first compound 8 µM)
NCI-H23 | 0.637 | 0.612 | 0.587 | 0.153 | 0.134 | 0.242 | 0.221 | 0.206 | 0.212 | 0.236 | 1.28 | 0.717 | 0.581 | 0.482 | 0.391 | 0.335 | 0.397 | 0.232
NCI-H322M | 0.935 | 0.864 | 0.938 | 0.795 | 0.252 | 0.721 | 0.994 | 0.725 | 1 | 0.964 | 1.27 | 1.19 | 1.2 | 1.24 | 0.484 | 0.471 | 0.473 | 0.434
NCI-H441 | 0.7 | 1.15 | 0.362 | 0.1 | 0.127 | 0.273 | 0.315 | 0.399 | – | 0.391 | – | 0.175 | 0.489 | 0.382 | 0.602 | 0.561 | 0.639 | 0.541
NCI-H460 | 0.921 | 1.01 | 0.852 | 0.0558 | 0.0115 | 0.0237 | 0.0313 | 0.0367 | 0.0315 | 0.0386 | 1.14 | 1.02 | 0.891 | 0.277 | 0.485 | 0.415 | 0.356 | 0.184
NCI-H520 | 0.759 | 0.883 | 0.665 | 0.103 | 0.106 | 0.212 | 0.258 | 0.243 | 0.258 | 0.231 | 0.788 | 0.336 | 0.671 | 0.209 | 0.39 | 0.389 | 0.467 | 0.411
NCI-H596 | 0.916 | 1.28 | 1 | 0.77 | 0.334 | 0.86 | 1.18 | 0.942 | 1.18 | 1.01 | 1.3 | 0.878 | 0.865 | 0.794 | 0.962 | 0.707 | 0.813 | 0.617
NCI-H647 | 0.847 | 1.04 | 0.713 | 0.0319 | 0.0277 | 0.2 | 0.14 | 0.146 | 0.152 | 0.153 | 1.18 | 0.942 | 0.864 | 0.416 | 0.253 | 0.258 | 0.407 | 0.255
NCI-H650 | 0.677 | 0.996 | 0.698 | 0.577 | 0.132 | 0.726 | 0.75 | – | 0.798 | 0.942 | 0.978 | 0.672 | 0.561 | 0.516 | 0.974 | 0.72 | 0.656 | 0.541
NCI-H661 | 0.861 | 0.971 | 1.01 | 0.985 | 0.867 | 0.832 | 0.92 | 0.892 | – | 0.908 | 1.06 | 0.745 | 0.703 | 0.582 | 0.346 | 0.355 | 0.34 | 0.343
NCI-H727 | 0.84 | 0.682 | 0.871 | 0.223 | 0.141 | – | 0.346 | 0.296 | – | 0.509 | 0.844 | 0.829 | 0.709 | 0.514 | 0.704 | 0.581 | 0.674 | 0.486
NCI-H838 | 0.876 | 0.972 | 0.923 | 0.577 | 0.122 | 0.289 | 0.275 | 0.312 | 0.326 | 0.254 | 0.956 | 0.738 | 0.771 | 0.9 | 0.277 | 0.239 | 0.265 | 0.269
NCI-H1355 | 1.05 | 1.05 | 1.03 | 0.695 | 0.139 | 0.709 | 0.749 | 0.644 | 0.641 | 0.783 | 1.19 | 1.14 | 1.15 | 1.12 | 0.697 | 0.552 | 0.562 | 0.444
NCI-H1437 | 0.915 | 1.04 | 0.898 | 0.835 | 0.184 | 1.06 | 1.15 | 1.14 | 1.17 | 1.22 | 0.504 | 0.422 | 0.529 | 0.424 | 0.424 | 0.393 | 0.394 | 0.379
NCI-H1650 | – | 0.839 | 0.642 | 0.114 | 0.139 | 0.165 | 0.193 | 0.202 | 0.18 | 0.206 | 0.265 | 0.196 | 0.232 | 0.197 | 0.475 | 0.391 | 0.372 | 0.361
NCI-H1651 | 0.874 | 0.914 | 0.782 | 0.383 | 0.122 | 0.793 | 0.74 | 0.831 | 1.09 | 0.942 | 0.892 | 0.901 | 0.781 | 0.451 | 0.677 | 0.638 | 0.439 | 0.257
NCI-H1666 | 1.07 | 1.14 | 1.08 | 0.409 | 0.211 | 0.864 | 1 | 1.09 | 0.991 | 0.999 | 0.771 | 0.799 | 0.633 | 0.65 | 0.619 | 0.733 | 0.583 | 0.515
NCI-H1734 | 0.658 | 0.836 | 0.616 | 0.435 | 0.111 | 0.213 | 0.182 | 0.209 | – | 0.193 | 1.06 | 0.835 | 0.91 | 0.614 | 0.25 | 0.249 | 0.251 | 0.251
NCI-H1755 | 0.817 | 0.904 | 0.894 | 0.498 | 0.189 | 0.428 | 0.482 | 0.445 | 0.554 | 0.266 | 1.03 | 0.92 | 0.921 | 0.893 | 0.611 | 0.547 | 0.548 | 0.531
